Results from ChEMBL document CHEMBL5230151, “A review of synthetic bioactive tetrahydro-β-carbolines: A medicinal chemistry perspective” (Eur J Med Chem, 2021).
Converted amounts (≈) assume the structure as drawn.

Columns and labels:
Tobacco mosaic virus [1] = experiment: In vivo antiviral activity against tobacco mosaic virus assessed as virus inactivation at 500 ug/ml relative to control; format: functional; settings: dose 500 µg/ml
Tobacco mosaic virus [2] = experiment: In vivo antiviral activity against tobacco mosaic virus assessed as curative activity at 500 ug/ml relative to control; format: functional; settings: dose 500 µg/ml
Tobacco mosaic virus [3] = experiment: In vivo antiviral activity against tobacco mosaic virus assessed as protection activity at 500 ug/ml relative to control; format: functional; settings: dose 500 µg/ml
[4] = target: T1, Protein deacetylase HDAC6 (Homo sapiens, UniProt Q9UBN7); experiment: Inhibition of human HDAC6
T1 sequence (Q9UBN7 whole entry): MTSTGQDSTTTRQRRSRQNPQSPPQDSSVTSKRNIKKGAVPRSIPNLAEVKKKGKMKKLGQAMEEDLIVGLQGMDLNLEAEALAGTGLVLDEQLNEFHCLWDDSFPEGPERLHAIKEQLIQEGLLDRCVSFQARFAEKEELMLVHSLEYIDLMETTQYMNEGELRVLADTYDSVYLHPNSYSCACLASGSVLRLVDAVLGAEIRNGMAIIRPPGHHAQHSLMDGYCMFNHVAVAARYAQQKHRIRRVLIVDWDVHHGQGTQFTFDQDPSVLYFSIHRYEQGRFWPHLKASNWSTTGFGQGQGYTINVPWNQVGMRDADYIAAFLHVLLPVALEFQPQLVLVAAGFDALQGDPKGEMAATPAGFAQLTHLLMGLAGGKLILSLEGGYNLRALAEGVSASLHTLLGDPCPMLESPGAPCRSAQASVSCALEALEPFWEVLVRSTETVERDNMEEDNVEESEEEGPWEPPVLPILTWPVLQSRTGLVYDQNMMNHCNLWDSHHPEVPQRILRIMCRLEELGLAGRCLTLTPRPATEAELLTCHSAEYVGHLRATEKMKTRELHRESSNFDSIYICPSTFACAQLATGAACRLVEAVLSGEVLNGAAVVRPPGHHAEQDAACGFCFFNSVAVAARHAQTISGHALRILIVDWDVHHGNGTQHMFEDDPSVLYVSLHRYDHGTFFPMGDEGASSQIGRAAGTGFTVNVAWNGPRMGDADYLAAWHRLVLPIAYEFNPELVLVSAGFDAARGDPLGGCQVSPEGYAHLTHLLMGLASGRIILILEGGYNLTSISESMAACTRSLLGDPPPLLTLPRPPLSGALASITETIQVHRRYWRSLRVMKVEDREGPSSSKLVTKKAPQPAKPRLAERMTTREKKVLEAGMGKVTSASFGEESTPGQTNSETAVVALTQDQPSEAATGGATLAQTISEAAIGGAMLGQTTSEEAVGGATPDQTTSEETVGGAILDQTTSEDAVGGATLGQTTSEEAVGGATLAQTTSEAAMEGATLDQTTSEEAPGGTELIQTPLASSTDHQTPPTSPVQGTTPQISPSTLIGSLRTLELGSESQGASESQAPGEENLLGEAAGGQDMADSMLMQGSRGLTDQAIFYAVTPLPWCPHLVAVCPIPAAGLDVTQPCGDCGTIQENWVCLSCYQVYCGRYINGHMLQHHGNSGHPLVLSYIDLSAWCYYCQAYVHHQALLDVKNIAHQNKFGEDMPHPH

Plasmodium berghei = experiment: Antiplasmodial activity against Plasmodium berghei assessed as inhibition of schizont maturation at 5 ug/ml relative to control; format: functional
Gaeumannomyces graminis [5] = experiment: Antifungal activity against Gaeumannomyces graminis at 10 mg/ml relative to control; format: functional
Gaeumannomyces graminis [6] = experiment: Antifungal activity against Gaeumannomyces graminis; format: functional, organism-based
Histone deacetylase 1 = Histone deacetylase 1 (Homo sapiens, UniProt Q13547); experiment: Inhibition of human HDAC1
[7] = target: T2, cGMP-specific 3',5'-cyclic phosphodiesterase (Homo sapiens, UniProt O76074); experiment: Inhibition of human PDE5A using fluorescence-labelled substrate
Acetylcholinesterase [8] = target: T3, Acetylcholinesterase (Electrophorus electricus, UniProt O42275); experiment: Inhibition of electric eel AChE using acetylthiocholine iodide as substrate measured after 20 mins by Ellmans method
[9] = target: T2, cGMP-specific 3',5'-cyclic phosphodiesterase; experiment: Inhibition of PDE5 (unknown origin)
[10] = Inhibition of equine serum BuChE using S-butylthiocholine iodide as substrate measured after 20 mins by Ellmans method; design: species or system […]
[11] = target: T2, cGMP-specific 3',5'-cyclic phosphodiesterase; experiment: Inhibition of human PDE5
[12] = target: Amyloid-beta precursor protein (Homo sapiens) (UniProt P05067); experiment: Inhibition of self-induced amyloid beta (1 to 42 ) (unknown origin) aggregation at 20 uM measured after 24 hrs by thioflavin-T fluorescence method relative to control
Acetylcholinesterase [13] = target: T3, Acetylcholinesterase; experiment: Inhibition of electric eel AChE using acetylthiocholine iodide as substrate
[14] = Inhibition of equine serum BuChE using butyrylthiocholine chloride as substrate
[15] = Inhibition of Plasmodium falciparum IspD
[16] = target: T4, Kinesin-like protein KIF11 (Homo sapiens, UniProt P52732); experiment: Inhibition of Eg5 ATPase activity (unknown origin)
T4 sequence (P52732 whole entry): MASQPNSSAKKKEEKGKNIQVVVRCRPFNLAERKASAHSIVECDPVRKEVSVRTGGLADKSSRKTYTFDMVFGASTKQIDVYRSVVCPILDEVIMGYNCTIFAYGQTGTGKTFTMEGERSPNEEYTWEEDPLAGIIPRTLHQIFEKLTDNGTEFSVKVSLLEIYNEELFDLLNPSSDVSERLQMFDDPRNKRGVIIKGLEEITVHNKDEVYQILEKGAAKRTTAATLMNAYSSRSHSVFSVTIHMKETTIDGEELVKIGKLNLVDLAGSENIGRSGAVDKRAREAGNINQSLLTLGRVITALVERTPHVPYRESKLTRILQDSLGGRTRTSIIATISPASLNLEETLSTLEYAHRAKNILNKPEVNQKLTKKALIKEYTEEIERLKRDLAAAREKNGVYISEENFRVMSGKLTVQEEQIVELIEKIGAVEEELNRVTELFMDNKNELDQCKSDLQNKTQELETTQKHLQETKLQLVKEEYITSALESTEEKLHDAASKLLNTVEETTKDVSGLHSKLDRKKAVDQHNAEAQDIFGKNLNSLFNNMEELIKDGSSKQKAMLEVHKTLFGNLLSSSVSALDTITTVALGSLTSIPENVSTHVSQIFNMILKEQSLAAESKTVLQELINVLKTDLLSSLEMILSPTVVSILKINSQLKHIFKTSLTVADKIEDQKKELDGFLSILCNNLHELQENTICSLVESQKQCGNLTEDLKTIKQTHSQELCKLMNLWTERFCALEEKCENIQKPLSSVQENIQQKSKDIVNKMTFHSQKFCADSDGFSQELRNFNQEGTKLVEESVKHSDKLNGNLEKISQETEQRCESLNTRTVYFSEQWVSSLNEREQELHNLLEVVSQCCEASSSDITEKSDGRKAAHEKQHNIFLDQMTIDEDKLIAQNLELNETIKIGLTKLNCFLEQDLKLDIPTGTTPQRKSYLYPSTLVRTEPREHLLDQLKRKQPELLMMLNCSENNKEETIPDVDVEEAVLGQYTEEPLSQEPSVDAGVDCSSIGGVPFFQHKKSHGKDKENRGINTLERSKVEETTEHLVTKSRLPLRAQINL

T3 sequence (O42275 whole entry): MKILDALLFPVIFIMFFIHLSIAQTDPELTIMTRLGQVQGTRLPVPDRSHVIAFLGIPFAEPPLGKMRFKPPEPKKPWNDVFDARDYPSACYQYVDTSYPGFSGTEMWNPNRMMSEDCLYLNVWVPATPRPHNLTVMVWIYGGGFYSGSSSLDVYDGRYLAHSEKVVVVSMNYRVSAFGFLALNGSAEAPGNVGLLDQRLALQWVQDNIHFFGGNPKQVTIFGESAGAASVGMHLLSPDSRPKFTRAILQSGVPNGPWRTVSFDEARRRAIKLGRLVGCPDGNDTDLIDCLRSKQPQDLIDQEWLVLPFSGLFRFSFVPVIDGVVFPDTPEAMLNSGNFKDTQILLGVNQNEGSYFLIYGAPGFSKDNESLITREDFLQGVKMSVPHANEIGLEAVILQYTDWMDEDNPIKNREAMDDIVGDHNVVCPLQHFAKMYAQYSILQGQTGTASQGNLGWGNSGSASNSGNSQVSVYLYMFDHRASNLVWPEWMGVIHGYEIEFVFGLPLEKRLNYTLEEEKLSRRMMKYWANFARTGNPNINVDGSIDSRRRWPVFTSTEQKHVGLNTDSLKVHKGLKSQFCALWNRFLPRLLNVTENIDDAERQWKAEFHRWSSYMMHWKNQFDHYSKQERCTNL
Sequence of Histone deacetylase 1 (Q13547 whole entry): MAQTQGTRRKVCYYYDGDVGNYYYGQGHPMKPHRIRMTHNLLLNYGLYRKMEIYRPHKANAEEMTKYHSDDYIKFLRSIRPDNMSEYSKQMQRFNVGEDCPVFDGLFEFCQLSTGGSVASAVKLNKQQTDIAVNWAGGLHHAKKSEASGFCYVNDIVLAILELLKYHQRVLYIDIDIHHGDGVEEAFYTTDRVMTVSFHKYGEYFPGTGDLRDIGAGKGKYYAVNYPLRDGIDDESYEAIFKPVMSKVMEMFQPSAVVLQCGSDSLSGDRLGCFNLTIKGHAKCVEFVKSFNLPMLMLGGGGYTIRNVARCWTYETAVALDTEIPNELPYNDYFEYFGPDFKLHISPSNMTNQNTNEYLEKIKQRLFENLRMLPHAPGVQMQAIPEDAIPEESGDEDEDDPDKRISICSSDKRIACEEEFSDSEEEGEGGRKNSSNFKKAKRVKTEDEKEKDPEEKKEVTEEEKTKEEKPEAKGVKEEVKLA
Sequence of Amyloid-beta precursor protein (Homo sapiens) (P05067 whole entry): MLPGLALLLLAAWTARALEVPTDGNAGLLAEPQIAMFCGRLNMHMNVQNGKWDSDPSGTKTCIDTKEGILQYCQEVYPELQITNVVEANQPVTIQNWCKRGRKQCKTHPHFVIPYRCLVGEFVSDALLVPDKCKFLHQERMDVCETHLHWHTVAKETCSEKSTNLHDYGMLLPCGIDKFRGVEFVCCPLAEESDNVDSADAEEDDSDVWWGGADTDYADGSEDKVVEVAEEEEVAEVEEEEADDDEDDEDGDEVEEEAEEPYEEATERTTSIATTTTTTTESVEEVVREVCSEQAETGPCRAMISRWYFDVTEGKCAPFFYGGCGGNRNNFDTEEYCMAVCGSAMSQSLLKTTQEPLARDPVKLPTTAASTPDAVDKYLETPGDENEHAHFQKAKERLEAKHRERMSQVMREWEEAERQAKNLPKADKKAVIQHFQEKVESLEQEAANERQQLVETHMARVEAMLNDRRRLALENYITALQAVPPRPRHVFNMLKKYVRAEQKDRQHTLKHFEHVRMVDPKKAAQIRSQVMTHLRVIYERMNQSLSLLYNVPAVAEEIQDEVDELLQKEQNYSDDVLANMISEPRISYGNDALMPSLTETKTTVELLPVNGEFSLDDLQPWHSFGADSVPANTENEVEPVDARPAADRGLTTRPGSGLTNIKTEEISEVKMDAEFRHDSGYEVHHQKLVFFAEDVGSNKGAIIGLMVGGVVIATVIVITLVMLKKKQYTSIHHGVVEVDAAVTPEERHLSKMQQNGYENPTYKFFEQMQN

CC1N[C@H](C(=O)N/N=C/c2ccc(Cl)cc2)Cc2c1[nH]c1ccccc21 (stereo partly drawn) showed an Activity (Tobacco mosaic virus [1]) of 66.9%, an Activity (Tobacco mosaic virus [2]) of 63.2% and an Activity (Tobacco mosaic virus [3]) of 68.1%.

CN1C(=O)C2CN(Cc3c2c2ccccc2n3Cc2ccc(C(=O)NO)cc2)C1=O (stereo not drawn) gave an IC50 [4] of 0.7 nM.

COC(=O)[C@@H]1Cc2c([nH]c3ccccc23)[C@@H](c2ccc3c(c2)OCO3)N1 gave an inhibition at 5 µg/mL (Plasmodium berghei) of 71.8%.

Work on C[C@@H]1COC(c2ccccc2NC(=O)[C@@H]2Cc3c([nH]c4ccccc34)[C@H](C)N2)=N1 yielded an inhibition at 10000 µg/mL (Gaeumannomyces graminis [5]) of 72.2% and an EC50 (Gaeumannomyces graminis [6]) of 3.53 µg/mL (≈ 9.09 µM).

CCCCOC(=O)[C@H]1Cc2c([nH]c3ccccc23)[C@H](C)N1 showed an Activity (Tobacco mosaic virus [1]) of 51.3%, an Activity (Tobacco mosaic virus [2]) of 42.2% and an Activity (Tobacco mosaic virus [3]) of 43.2%.

For CC1N[C@@H](C(=O)N/N=C/C2CCCCC2)Cc2c1[nH]c1ccccc21 (stereo partly drawn), the Activity (Tobacco mosaic virus [1]) was 75.8%, the Activity (Tobacco mosaic virus [2]) was 62.8% and the Activity (Tobacco mosaic virus [3]) was 69.2%.

With O=C(Cc1cnc(N2CCC(CN3CC(=O)N4[C@H](c5ccc6c(c5)OCO6)c5[nH]c6ccccc6c5C[C@@H]4C3=O)CC2)nc1)NO the IC50 [4] was 239 nM, the IC50 (Histone deacetylase 1) was 197 nM and the IC50 [7] was 653 nM.

C[C@@H]1N[C@@H](C(=O)NN)Cc2c1[nH]c1ccccc21 gave an Activity (Tobacco mosaic virus [1]) of 64.2%, an Activity (Tobacco mosaic virus [2]) of 57.2% and an Activity (Tobacco mosaic virus [3]) of 59.5%.

C[C@@H]1N[C@H](C(=O)Nc2ccccc2C2=N[C@@H](C)CO2)Cc2c1[nH]c1ccccc21 gave an inhibition at 10000 µg/mL (Gaeumannomyces graminis [5]) of 65.8%.

CCOC(=O)[C@H]1Cc2c([nH]c3ccccc23)[C@H](C)N1 showed an Activity (Tobacco mosaic virus [1]) of 50.4%, an Activity (Tobacco mosaic virus [2]) of 43.9% and an Activity (Tobacco mosaic virus [3]) of 47.9%.

For O=C(CCCCN1CCc2c([nH]c3ccccc23)C1)Oc1ccc(/C=C2/CCc3nc4ccccc4c(=O)n32)cc1, the IC50 (Acetylcholinesterase [8]) was 1.08 nM.

For COc1cccc2c1C(=O)N1CCc3c([nH]c4cccc(OC)c34)[C@@H]1C2C (stereo partly drawn), the IC50 [9] was 35 nM.

With CC1N[C@@H](C(=O)N/N=C/c2ccc(Cl)cc2)Cc2c1[nH]c1ccccc21 (stereo partly drawn) the Activity (Tobacco mosaic virus [1]) was 70.4%, the Activity (Tobacco mosaic virus [2]) was 71.5% and the Activity (Tobacco mosaic virus [3]) was 64.2%.

Molecule O=C(CCCCCCN1CC(=O)N2[C@H](c3ccc(Br)cc3)c3[nH]c4ccccc4c3C[C@@H]2C1=O)NO has an IC50 [7] of 46 nM.

In the case of CNCC(=O)N[C@@H](CO)C(=O)N[C@H]1[C@H](O)[C@@H](O)[C@H](n2ccc(N)nc2=O)O[C@@H]1C(N)=O [NINGNANMYCIN], the Activity (Tobacco mosaic virus [1]) is reported as 57.3%, the Activity (Tobacco mosaic virus [2]) is reported as 54.2% and the Activity (Tobacco mosaic virus [3]) is reported as 55%.

c1ccc2c(NCCCCCCCN3CCc4c([nH]c5ccccc45)C3)c3c(nc2c1)CCCC3 gave an IC50 (Acetylcholinesterase [8]) of 17.4 nM and an IC50 [10] of 3.16 nM.

With COC(=O)[C@@H]1Cc2c([nH]c3ccccc23)[C@@H](c2cccnc2)N1 the inhibition at 5 µg/mL (Plasmodium berghei) was 86.2%.

Work on COC(=O)c1cc2c(cn1)[nH]c1ccccc12 [BETA-CCM] yielded an IC50 [11] of 800 nM.

Molecule COc1ccc2[nH]c3c(c2c1)CCN(C(=O)/C=C/c1ccc(O)c(O)c1)C3C (stereo not drawn) has an inhibition [12] of 65%, an IC50 (Acetylcholinesterase [13]) of 75300 nM and an IC50 [14] of 6470 nM.

O=C(O)[C@@H]1Cc2c([nH]c3ccccc23)[C@@H](c2ccc(Cl)cc2Cl)N1 gave an IC50 [15] of 210 nM.

Molecule CC1c2[nH]c3ccccc3c2CCN1C(=O)/C=C/c1ccc(O)c(O)c1 (stereo not drawn) has an IC50 (Acetylcholinesterase [13]) of 21300 nM and an IC50 [14] of 1320 nM.

CCCCN1C(=O)[C@@H]2Cc3c([nH]c4ccccc34)[C@@H](c3cccc(O)c3)N2C1=O showed an IC50 [16] of 4300 nM.
